This assay has as its target adenosine A2A receptor (Homo sapiens, UniProt P29274). As to the kind of experiment: Adenosine A2A receptor agonist assay, method of L. J. Murphree et al, Molecular Pharmacology 61, 455-462 (2002). It is filed as binding. The text has this:
Compounds of formula (I) and formula (II) and their pharmaceutically acceptable salts are useful as pharmaceuticals. In particular, they activate the adenosine A2A receptor, i.e. they act as A2A receptor agonists.

The results in this text go back to patent US8258141B2, “Organic compounds” (Novartis AG, priority 2006, dated 2012).

The structures appear in SMILES notation. Counter-ions that a name gives are not always drawn.

Chain of adenosine A2A receptor (P29274 whole entry): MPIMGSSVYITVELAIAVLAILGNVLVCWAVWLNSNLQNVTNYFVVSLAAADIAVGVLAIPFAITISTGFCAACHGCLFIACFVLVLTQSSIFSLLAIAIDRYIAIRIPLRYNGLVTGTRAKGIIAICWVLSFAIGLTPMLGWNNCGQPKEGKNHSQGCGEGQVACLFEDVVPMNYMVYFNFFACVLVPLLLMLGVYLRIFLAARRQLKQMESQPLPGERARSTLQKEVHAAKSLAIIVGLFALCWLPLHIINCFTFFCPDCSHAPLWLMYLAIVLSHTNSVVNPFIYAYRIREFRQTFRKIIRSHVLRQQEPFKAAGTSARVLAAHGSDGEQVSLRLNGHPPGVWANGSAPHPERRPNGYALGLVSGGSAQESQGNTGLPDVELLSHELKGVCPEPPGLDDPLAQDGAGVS

As a reminder, the Ki is the equilibrium dissociation constant of an inhibitor or competing ligand from its target. A low value points to higher affinity. Take `CCC(=O)N[C@H]1C[C@@H](n2cnc3c(NCC(c4ccccc4)c4ccccc4)nc(N4CC[C@@H](NC(=O)NCc5ccncc5)C4)nc32)[C@H](O)[C@@H]1O` [Example 20, N-((1S,2R,3S,4R)-4-{6-(2,2-diphenyl-ethylamino)-2-[(R)-3-(3-pyridin-4-ylmethyl-ureido)-pyrrolidin-1-yl]-purin-9-yl}-2,3-dihydroxy-cyclopentyl)-propionamide trifluoroacetate]: affinity was put at a Ki of 1.6 nM.
The result for `O=C(CO)N[C@H]1C[C@@H](n2cnc3c(NCC(c4ccccc4)c4ccccc4)nc(C(=O)NCCNC(=O)NC4CCN(c5ccccn5)CC4)nc32)[C@H](O)[C@@H]1O` [Example 14, 9-[(1R,2S,3R,4S)-2,3-Dihydroxy-4-(2-hydroxy-acetylamino)-cyclopentyl]-6-(2,2-diphenyl-ethylamino)-9H-purine-2-carboxylic acid {2-[3-(3,4,5,6-tetrahydro-2H-[1,2′]bipyridinyl-4-yl)-ureido]-ethyl}-amide trifluoroacetate] reads 2.5 nM; that for `CCC(=O)N[C@H]1C[C@@H](n2cnc3c(NCC(c4ccccc4)c4ccccc4)nc(N4CC[C@@H](NC(=O)N[C@@H]5CCN(C(=O)c6ccc(C(=O)OC)cc6)C5)C4)nc32)[C@H](O)[C@@H]1O` [Example 36, 4-[(R)-3-(3-{(R)-1-[9-((1R,2S,3R,4S)-2,3-Dihydroxy-4-propionylamino-cyclopentyl)-6-(2,2-diphenyl-ethylamino)-9H-purin-2-yl]-pyrrolidin-3-yl}-ureido)-pyrrolidine-1-carbonyl]-benzoic acid methyl ester], 3 nM; that for `N[C@@H]1CCN(c2nc(NCC(c3ccccc3)c3ccccc3)c3ncn([C@@H]4C[C@H](NC(=O)CO)[C@@H](O)[C@H]4O)c3n2)C1` [Example 1, N-{(1S,2R,3S,4R)-4-[2-((R)-3-Amino-pyrrolidin-1-yl)-6-(2,2-diphenyl-ethylamino)-purin-9-yl]-2,3-dihydroxy-cyclopentyl}-2-hydroxy-acetamide trifluoroacetate], 8.3 nM.
The result for `CCC(=O)N[C@H]1C[C@@H](n2cnc3c(NCC(c4ccccc4)c4ccccc4)nc(N4CC[C@@H](NC(=O)Nc5ccc(OCc6ccccc6)cc5)C4)nc32)[C@H](O)[C@@H]1O` [Example 178, N-{(1S,2R,3S,4R)-4-[2-{(R)-3-[3-(4-Benzyloxy-phenyl)-ureido]-pyrrolidin-1-yl}-6-(2,2-diphenyl-ethylamino)-purin-9-yl]-2,3-dihydroxy-cyclopentyl}-propionamide trifluoroacetate] reads 8 nM.
